Measured values published in ChEMBL document CHEMBL2034921, “5-(5-(6-[(11)C]methyl-3,6-diazabicyclo[3.2.0]heptan-3-yl)pyridin-2-yl)-1H-indole as a potential PET radioligand for imaging cerebral α7-nAChR in mice” (Bioorg Med Chem, 2012).

How the values were obtained:
Assay type in all cases: ADME, organism-based; call rule not given here
Mus musculus [1] = assay: Biodistribution in CD1 mouse frontal cortex at 0.1 mCi, iv at 30 mins by gamma counting; conditions: in vivo, 0.5 h
Thalamus = assay: Biodistribution in CD1 mouse thalamus at 0.1 mCi, iv at 30 mins by gamma counting; conditions: in vivo, 0.5 h
Striatum = assay: Biodistribution in CD1 mouse striatum at 0.1 mCi, iv at 30 mins by gamma counting; conditions: in vivo, 0.5 h
Hippocampus [2] = assay: Biodistribution in CD1 mouse hippocampus at 0.1 mCi, iv at 30 mins by gamma counting; conditions: in vivo, 0.5 h
Mus musculus [3] = assay: Biodistribution in CD1 mouse frontal cortex at 3.7 MBq, iv after 90 mins in presence of 0.5 mg/kg, sc of PHA543613; parameters: dose 0.5 mg/kg, route intravenous; conditions: in vivo, 1.5 h
Hippocampus [4] = assay: Biodistribution in CD1 mouse hippocampus at 3.7 MBq, iv after 90 mins in presence of 0.5 mg/kg, sc of PHA543613; parameters: dose 0.5 mg/kg, route intravenous; conditions: in vivo, 1.5 h

**Q.** What does the source list for `[11CH3]N1CC2CN(c3ccc(-c4ccc5[nH]ccc5c4)nc3)CC21` (racemic)?
**A.** Drug uptake (Mus musculus [1]): Active; Drug uptake (Thalamus): Active; Drug uptake (Striatum): Active; Drug uptake (Hippocampus [2]): Active; Drug uptake (Mus musculus [3]): Not Active; Drug uptake (Hippocampus [4]): Not Active
